Assay results from the NIST ThermoML archive (doi:10.1021/je050085p).

Columns and labels:
[1] = refractive index (Na D-line) (dimensionless); conditions: 101.33 kPa, Liquid, Standard Abbe refractometry
[2] = 101.33 kPa, Liquid
[3] = xn = mol fraction of the nth substance listed; conditions: 308.15 K, 101 kPa, Liquid
[4] = refractive index (Na D-line) (dimensionless); xn = mol fraction of the nth substance listed; conditions: 308.15 K, 101 kPa, Liquid, Standard Abbe refractometry
[5] = excess molar enthalpy (molar enthalpy of mixing); xn = mol fraction of the nth substance listed; conditions: 308.15 K, 101 kPa, Liquid, Flow calorimetry

OCCc1ccccc1 [2-phenylethanol]
Conditions	mass density, [2] [kg/m3]	refractive index, [1]
298.15 K	–	1.5321
308.15 K	1008.75	1.5269

OCCc1ccccc1 [2-phenylethanol] + COc1ccccc1
Conditions	excess molar enthalpy [kcal/mol]	mass density [kg/m3]	refractive index
[3], x2 = 0.0521	–	1007.44	–
[3], x2 = 0.1223	–	1005.63	–
[3], x2 = 0.2121	–	1003.26	–
[3], x2 = 0.3153	–	1000.43	–
[3], x2 = 0.4172	–	997.53	–
[3], x2 = 0.5245	–	994.36	–
[3], x2 = 0.617	–	991.55	–
[3], x2 = 0.7479	–	987.5	–
[3], x2 = 0.7673	–	986.9	–
[3], x2 = 0.811	–	985.5	–
[3], x2 = 0.9073	–	982.55	–
[3], x2 = 0.9513	–	981.2	–
[4], x2 = 0.0521	–	–	1.526
[4], x2 = 0.1223	–	–	1.5248
[4], x2 = 0.2121	–	–	1.5233
[4], x2 = 0.3153	–	–	1.5217
[4], x2 = 0.4172	–	–	1.52
[4], x2 = 0.5245	–	–	1.5182
[4], x2 = 0.617	–	–	1.5165
[4], x2 = 0.7479	–	–	1.514
[4], x2 = 0.7673	–	–	1.5136
[4], x2 = 0.811	–	–	1.5127
[4], x2 = 0.9073	–	–	1.5106
[4], x2 = 0.9513	–	–	1.5096
[5], x2 = 0.0437	0.0227	–	–
[5], x2 = 0.0838	0.0478	–	–
[5], x2 = 0.1206	0.0728	–	–
[5], x2 = 0.1546	0.0948	–	–
[5], x2 = 0.2153	0.134	–	–
[5], x2 = 0.2678	0.164	–	–
[5], x2 = 0.3543	0.207	–	–
[5], x2 = 0.4224	0.228	–	–
[5], x2 = 0.5232	0.25	–	–
[5], x2 = 0.6221	0.269	–	–
[5], x2 = 0.687	0.273	–	–
[5], x2 = 0.767	0.267	–	–
[5], x2 = 0.8145	0.251	–	–
[5], x2 = 0.8682	0.217	–	–
[5], x2 = 0.9006	0.185	–	–
[5], x2 = 0.9294	0.147	–	–
[5], x2 = 0.9634	0.0864	–	–

OCCCc1ccccc1 [3-phenyl-1-propanol]
Conditions	mass density, [2] [kg/m3]	refractive index, [1]
298.15 K	–	1.5259
308.15 K	991.01	1.5214

OCCCc1ccccc1 [3-phenyl-1-propanol] + CCOc1ccccc1
Conditions	excess molar enthalpy [kcal/mol]	mass density [kg/m3]	refractive index
[3], x2 = 0.0636	–	988.77	–
[3], x2 = 0.1067	–	987.22	–
[3], x2 = 0.2164	–	983.2	–
[3], x2 = 0.31	–	979.65	–
[3], x2 = 0.417	–	975.46	–
[3], x2 = 0.515	–	971.51	–
[3], x2 = 0.6168	–	967.29	–
[3], x2 = 0.7074	–	963.43	–
[3], x2 = 0.7975	–	959.53	–
[3], x2 = 0.8977	–	955.2	–
[3], x2 = 0.9488	–	952.99	–
[3], x2 = 0.9596	–	952.53	–
[4], x2 = 0.0636	–	–	1.5203
[4], x2 = 0.1067	–	–	1.5194
[4], x2 = 0.2164	–	–	1.5173
[4], x2 = 0.31	–	–	1.5153
[4], x2 = 0.417	–	–	1.513
[4], x2 = 0.515	–	–	1.5109
[4], x2 = 0.6168	–	–	1.5086
[4], x2 = 0.7074	–	–	1.5066
[4], x2 = 0.7975	–	–	1.5045
[4], x2 = 0.8977	–	–	1.5023
[4], x2 = 0.9488	–	–	1.5012
[4], x2 = 0.9596	–	–	1.501
[5], x2 = 0.0427	0.0329	–	–
[5], x2 = 0.0818	0.0631	–	–
[5], x2 = 0.118	0.088	–	–
[5], x2 = 0.1513	0.114	–	–
[5], x2 = 0.211	0.146	–	–
[5], x2 = 0.2629	0.167	–	–
[5], x2 = 0.3485	0.193	–	–
[5], x2 = 0.4162	0.212	–	–
[5], x2 = 0.5169	0.236	–	–
[5], x2 = 0.6162	0.257	–	–
[5], x2 = 0.6815	0.267	–	–
[5], x2 = 0.7625	0.267	–	–
[5], x2 = 0.8106	0.255	–	–
[5], x2 = 0.8596	0.225	–	–
[5], x2 = 0.8954	0.194	–	–
[5], x2 = 0.9277	0.152	–	–
[5], x2 = 0.9625	0.0896	–	–

OCCCc1ccccc1 [3-phenyl-1-propanol] + COc1ccccc1
Conditions	excess molar enthalpy [kcal/mol]	mass density [kg/m3]	refractive index
[3], x2 = 0.0579	–	990.46	–
[3], x2 = 0.1201	–	989.91	–
[3], x2 = 0.2636	–	988.55	–
[3], x2 = 0.384	–	987.28	–
[3], x2 = 0.4475	–	986.57	–
[3], x2 = 0.5551	–	985.27	–
[3], x2 = 0.6495	–	984.07	–
[3], x2 = 0.7477	–	982.78	–
[3], x2 = 0.8274	–	981.73	–
[3], x2 = 0.8652	–	981.26	–
[3], x2 = 0.913	–	980.67	–
[3], x2 = 0.9588	–	980.14	–
[4], x2 = 0.0579	–	–	1.5208
[4], x2 = 0.1201	–	–	1.5201
[4], x2 = 0.2636	–	–	1.5186
[4], x2 = 0.384	–	–	1.5173
[4], x2 = 0.4475	–	–	1.5166
[4], x2 = 0.5551	–	–	1.5154
[4], x2 = 0.6495	–	–	1.5142
[4], x2 = 0.7477	–	–	1.5129
[4], x2 = 0.8274	–	–	1.5118
[4], x2 = 0.8652	–	–	1.5113
[4], x2 = 0.913	–	–	1.5108
[4], x2 = 0.9588	–	–	1.5101
[5], x2 = 0.0493	0.0303	–	–
[5], x2 = 0.094	0.059	–	–
[5], x2 = 0.1347	0.0863	–	–
[5], x2 = 0.1719	0.107	–	–
[5], x2 = 0.2374	0.145	–	–
[5], x2 = 0.2934	0.171	–	–
[5], x2 = 0.3838	0.205	–	–
[5], x2 = 0.4536	0.224	–	–
[5], x2 = 0.5547	0.246	–	–
[5], x2 = 0.6514	0.261	–	–
[5], x2 = 0.7136	0.265	–	–
[5], x2 = 0.7889	0.258	–	–
[5], x2 = 0.8328	0.239	–	–
[5], x2 = 0.877	0.207	–	–
[5], x2 = 0.9088	0.175	–	–
[5], x2 = 0.9373	0.133	–	–
[5], x2 = 0.9676	0.0777	–	–

COc1ccccc1 [anisole]
Conditions	mass density, [2] [kg/m3]	refractive index, [1]
298.15 K	989.3	1.5153
308.15 K	979.71	1.5095
